{"source": "the supplement of paper PMC10307832", "test_in_all_cases": "relative viability (nuclei count vs DMSO), 5 days (fraction); higher = more cells survive", "key": {"A549": {"system": "A549", "method_in_brief": "(§1)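 Values are medians from duplicate plates. Each reflects relative viability, defined as the nuclei count of treated wells over that of vehicle wells. Lung cancer cell lines in 1536-well plates were pin-tool dosed one day after seeding with one drug alone or with a fixed anchor-drug dose plus five library-drug doses (not always all listed) in √10 steps, then fixed, stained and imaged at 4× after 5 days.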"}, "Calu-6": {"system": "Calu-6", "method_in_brief": "as §1"}, "EBC-1": {"system": "EBC-1", "method_in_brief": "as §1"}, "HCC-15": {"system": "HCC-15", "method_in_brief": "as §1"}, "IA-LM": {"system": "IA-LM", "method_in_brief": "as §1"}, "LCLC-103H": {"system": "LCLC-103H", "method_in_brief": "as §1"}, "NCI-H1299": {"system": "NCI-H1299", "method_in_brief": "as §1"}, "NCI-H1703": {"system": "NCI-H1703", "method_in_brief": "as §1"}, "UMC-11": {"system": "UMC-11", "method_in_brief": "as §1"}}, "data": [{"smiles": "NC(=O)Nc1cc(-c2cccc(F)c2)sc1C(=O)N[C@H]1CCCNC1", "note": "[AZD7762] + C[C@]1(O)C[C@@H](c2nc(-c3ccc4ccc(-c5ccccc5)nc4c3)c3c(N)nccn32)C1 [Linsitinib] (partner 1 µM)", "values": [{"measurement": "relative viability", "setting": "A549; first compound 0.01 µM", "result": 0.564}, {"measurement": "relative viability", "setting": "A549; first compound 0.03162 µM", "result": 0.577}, {"measurement": "relative viability", "setting": "A549; first compound 0.1 µM", "result": 0.705}, {"measurement": "relative viability", "setting": "A549; first compound 0.3162 µM", "result": 0.616}, {"measurement": "relative viability", "setting": "A549; first compound 1 µM", "result": 0.494}, {"measurement": "relative viability", "setting": "Calu-6; first compound 0.01 µM", "result": 1.02}, {"measurement": "relative viability", "setting": "Calu-6; first compound 0.03162 µM", "result": 0.964}, {"measurement": "relative viability", "setting": "Calu-6; first compound 0.1 µM", "result": 0.944}, {"measurement": "relative viability", "setting": "Calu-6; first compound 0.3162 µM", "result": 0.649}, {"measurement": "relative viability", "setting": "Calu-6; first compound 1 µM", "result": 0.14}, {"measurement": "relative viability", "setting": "EBC-1; first compound 0.01 µM", "result": 1.01}, {"measurement": "relative viability", "setting": "EBC-1; first compound 0.03162 µM", "result": 0.877}, {"measurement": "relative viability", "setting": "EBC-1; first compound 0.1 µM", "result": 1.03}, {"measurement": "relative viability", "setting": "EBC-1; first compound 0.3162 µM", "result": 0.884}, {"measurement": "relative viability", "setting": "EBC-1; first compound 1 µM", "result": 0.76}, {"measurement": "relative viability", "setting": "HCC-15; first compound 0.01 µM", "result": 0.886}, {"measurement": "relative viability", "setting": "HCC-15; first compound 0.03162 µM", "result": 0.918}, {"measurement": "relative viability", "setting": "HCC-15; first compound 0.1 µM", "result": 0.915}, {"measurement": "relative viability", "setting": "HCC-15; first compound 0.3162 µM", "result": 0.93}, {"measurement": "relative viability", "setting": "HCC-15; first compound 1 µM", "result": 0.985}, {"measurement": "relative viability", "setting": "IA-LM; first compound 0.01 µM", "result": 0.713}, {"measurement": "relative viability", "setting": "IA-LM; first compound 0.03162 µM", "result": 0.663}, {"measurement": "relative viability", "setting": "IA-LM; first compound 0.1 µM", "result": 0.629}, {"measurement": "relative viability", "setting": "IA-LM; first compound 0.3162 µM", "result": 0.628}, {"measurement": "relative viability", "setting": "IA-LM; first compound 1 µM", "result": 0.47}, {"measurement": "relative viability", "setting": "LCLC-103H; first compound 0.01 µM", "result": 1.1}, {"measurement": "relative viability", "setting": "LCLC-103H; first compound 0.03162 µM", "result": 1.09}, {"measurement": "relative viability", "setting": "LCLC-103H; first compound 0.1 µM", "result": 0.997}, {"measurement": "relative viability", "setting": "LCLC-103H; first compound 0.3162 µM", "result": 1.11}, {"measurement": "relative viability", "setting": "LCLC-103H; first compound 1 µM", "result": 0.738}, {"measurement": "relative viability", "setting": "NCI-H1299; first compound 0.01 µM", "result": 0.99}, {"measurement": "relative viability", "setting": "NCI-H1299; first compound 0.03162 µM", "result": 0.995}, {"measurement": "relative viability", "setting": "NCI-H1299; first compound 0.1 µM", "result": 1.04}, {"measurement": "relative viability", "setting": "NCI-H1299; first compound 0.3162 µM", "result": 1}, {"measurement": "relative viability", "setting": "NCI-H1299; first compound 1 µM", "result": 0.323}, {"measurement": "relative viability", "setting": "NCI-H1703; first compound 0.01 µM", "result": 0.688}, {"measurement": "relative viability", "setting": "NCI-H1703; first compound 0.03162 µM", "result": 0.164}, {"measurement": "relative viability", "setting": "NCI-H1703; first compound 0.1 µM", "result": 0.181}, {"measurement": "relative viability", "setting": "NCI-H1703; first compound 0.3162 µM", "result": 0.164}, {"measurement": "relative viability", "setting": "NCI-H1703; first compound 1 µM", "result": 0.177}, {"measurement": "relative viability", "setting": "UMC-11; first compound 0.01 µM", "result": 1.03}, {"measurement": "relative viability", "setting": "UMC-11; first compound 0.03162 µM", "result": 0.956}, {"measurement": "relative viability", "setting": "UMC-11; first compound 0.1 µM", "result": 0.976}, {"measurement": "relative viability", "setting": "UMC-11; first compound 0.3162 µM", "result": 0.689}, {"measurement": "relative viability", "setting": "UMC-11; first compound 1 µM", "result": 0.551}]}, {"smiles": "NC(=O)Nc1cc(-c2cccc(F)c2)sc1C(=O)N[C@H]1CCCNC1", "note": "[AZD7762] + Cc1nc(NC(=O)N2CCC[C@H]2C(N)=O)sc1-c1ccnc(C(C)(C)C(F)(F)F)c1 [Alpelisib] (partner 2 µM)", "values": [{"measurement": "relative viability", "setting": "A549; first compound 0.01 µM", "result": 0.748}, {"measurement": "relative viability", "setting": "A549; first compound 0.03162 µM", "result": 0.86}, {"measurement": "relative viability", "setting": "A549; first compound 0.1 µM", "result": 0.83}, {"measurement": "relative viability", "setting": "A549; first compound 0.3162 µM", "result": 0.84}, {"measurement": "relative viability", "setting": "A549; first compound 1 µM", "result": 0.336}, {"measurement": "relative viability", "setting": "Calu-6; first compound 0.01 µM", "result": 1.03}, {"measurement": "relative viability", "setting": "Calu-6; first compound 0.03162 µM", "result": 0.935}, {"measurement": "relative viability", "setting": "Calu-6; first compound 0.1 µM", "result": 0.881}, {"measurement": "relative viability", "setting": "Calu-6; first compound 0.3162 µM", "result": 0.411}, {"measurement": "relative viability", "setting": "Calu-6; first compound 1 µM", "result": 0.157}, {"measurement": "relative viability", "setting": "EBC-1; first compound 0.01 µM", "result": 0.952}, {"measurement": "relative viability", "setting": "EBC-1; first compound 0.03162 µM", "result": 0.714}, {"measurement": "relative viability", "setting": "EBC-1; first compound 0.1 µM", "result": 0.831}, {"measurement": "relative viability", "setting": "EBC-1; first compound 0.3162 µM", "result": 0.763}, {"measurement": "relative viability", "setting": "EBC-1; first compound 1 µM", "result": 0.367}, {"measurement": "relative viability", "setting": "HCC-15; first compound 0.01 µM", "result": 0.995}, {"measurement": "relative viability", "setting": "HCC-15; first compound 0.03162 µM", "result": 0.945}, {"measurement": "relative viability", "setting": "HCC-15; first compound 0.1 µM", "result": 0.983}, {"measurement": "relative viability", "setting": "HCC-15; first compound 0.3162 µM", "result": 0.93}, {"measurement": "relative viability", "setting": "HCC-15; first compound 1 µM", "result": 1.12}, {"measurement": "relative viability", "setting": "IA-LM; first compound 0.01 µM", "result": 0.828}, {"measurement": "relative viability", "setting": "IA-LM; first compound 0.03162 µM", "result": 0.702}, {"measurement": "relative viability", "setting": "IA-LM; first compound 0.1 µM", "result": 0.885}, {"measurement": "relative viability", "setting": "IA-LM; first compound 0.3162 µM", "result": 1.07}, {"measurement": "relative viability", "setting": "IA-LM; first compound 1 µM", "result": 0.364}, {"measurement": "relative viability", "setting": "LCLC-103H; first compound 0.01 µM", "result": 1.01}, {"measurement": "relative viability", "setting": "LCLC-103H; first compound 0.03162 µM", "result": 0.962}, {"measurement": "relative viability", "setting": "LCLC-103H; first compound 0.1 µM", "result": 0.889}, {"measurement": "relative viability", "setting": "LCLC-103H; first compound 0.3162 µM", "result": 0.977}, {"measurement": "relative viability", "setting": "LCLC-103H; first compound 1 µM", "result": 0.9}, {"measurement": "relative viability", "setting": "NCI-H1299; first compound 0.01 µM", "result": 1.16}, {"measurement": "relative viability", "setting": "NCI-H1299; first compound 0.03162 µM", "result": 1.01}, {"measurement": "relative viability", "setting": "NCI-H1299; first compound 0.1 µM", "result": 1.03}, {"measurement": "relative viability", "setting": "NCI-H1299; first compound 0.3162 µM", "result": 1.04}, {"measurement": "relative viability", "setting": "NCI-H1299; first compound 1 µM", "result": 0.942}, {"measurement": "relative viability", "setting": "NCI-H1703; first compound 0.01 µM", "result": 0.314}, {"measurement": "relative viability", "setting": "NCI-H1703; first compound 0.03162 µM", "result": 0.224}, {"measurement": "relative viability", "setting": "NCI-H1703; first compound 0.1 µM", "result": 0.231}, {"measurement": "relative viability", "setting": "NCI-H1703; first compound 0.3162 µM", "result": 0.164}, {"measurement": "relative viability", "setting": "NCI-H1703; first compound 1 µM", "result": 0.146}, {"measurement": "relative viability", "setting": "UMC-11; first compound 0.01 µM", "result": 1.03}, {"measurement": "relative viability", "setting": "UMC-11; first compound 0.03162 µM", "result": 0.962}, {"measurement": "relative viability", "setting": "UMC-11; first compound 0.1 µM", "result": 1.06}, {"measurement": "relative viability", "setting": "UMC-11; first compound 0.3162 µM", "result": 1.03}, {"measurement": "relative viability", "setting": "UMC-11; first compound 1 µM", "result": 0.653}]}]}
